In patent US20090291095A1, “NANOEMULSION ADJUVANTS” (The Regents of the University of Michigan, priority 2008, published 2009):

System: virus
Experiment: Virus inactivation by BCTP component
Conditions: concentrations equivalent to 11% BCTP

Substance: TRITON-X100
- ability to inactivate a virus: less ability to inactivate a virus
